The results in this text go back to patent EP0810221A1 (MITSUBISHI CHEMICAL CORPORATION, priority 1995, dated 1996).

Structures are written as SMILES.

One assay concerns the target T1, m-Calpain (Rattus norvegicus, UniProt Q07009).
T1 construct: m-Calpain was purified from brains of rats; from tissue; host or cells: rat brain
T1 sequence (Q07009 20-700 limits assumed): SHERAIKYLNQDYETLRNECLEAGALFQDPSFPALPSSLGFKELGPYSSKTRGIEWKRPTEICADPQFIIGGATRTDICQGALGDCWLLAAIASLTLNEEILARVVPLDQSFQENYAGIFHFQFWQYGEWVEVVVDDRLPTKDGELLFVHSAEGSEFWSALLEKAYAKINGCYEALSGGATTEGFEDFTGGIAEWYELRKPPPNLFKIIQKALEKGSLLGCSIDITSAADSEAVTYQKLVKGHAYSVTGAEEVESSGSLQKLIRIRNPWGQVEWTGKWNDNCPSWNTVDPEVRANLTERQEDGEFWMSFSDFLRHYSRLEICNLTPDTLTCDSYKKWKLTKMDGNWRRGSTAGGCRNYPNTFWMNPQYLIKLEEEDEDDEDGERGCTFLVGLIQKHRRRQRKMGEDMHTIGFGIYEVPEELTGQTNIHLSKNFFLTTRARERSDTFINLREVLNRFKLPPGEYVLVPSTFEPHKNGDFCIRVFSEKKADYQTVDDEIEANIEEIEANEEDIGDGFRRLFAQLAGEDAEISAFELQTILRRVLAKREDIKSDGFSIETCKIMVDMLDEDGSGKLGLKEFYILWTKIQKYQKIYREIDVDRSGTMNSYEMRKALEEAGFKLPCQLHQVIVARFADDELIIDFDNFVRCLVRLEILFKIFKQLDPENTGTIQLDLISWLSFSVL
T1 sequence (Q64537 1-270 partner): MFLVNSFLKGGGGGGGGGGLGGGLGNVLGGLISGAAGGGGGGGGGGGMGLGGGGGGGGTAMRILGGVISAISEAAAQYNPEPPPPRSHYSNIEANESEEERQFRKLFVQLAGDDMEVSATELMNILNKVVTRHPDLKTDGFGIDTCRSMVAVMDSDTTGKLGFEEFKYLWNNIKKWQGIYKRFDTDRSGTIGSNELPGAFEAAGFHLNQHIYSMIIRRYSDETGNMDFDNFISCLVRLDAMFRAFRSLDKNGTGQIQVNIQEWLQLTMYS
Put plainly: Inhibitory activity against calpain (m-Calpain purified from brains of rats). Format: biochemical. On the procedure: m-Calpain was purified from brains of rats according to a method described in a literature (Journal of Biological Chemistry, Vol. 259, p. 3210, 1984), and the inhibitory activity was determined in a manner according to a published method (Journal of Biological Chemistry, Vol. 259, p. 12489, 1984).

In assay [1] the target is T2, cathepsin B (Sigma, C-6286) (Bos taurus, UniProt P07688).
T2 construct: purchased Sigma C-6286
The experiment in a line: Inhibitory activity against cathepsin B. In kind it is biochemical. The settings on record: Inhibitory activity against cathepsin B (Table-5). On the procedure:
Inhibitory activity against cathepsin B (Sigma, C-6286) was determined according to a method described in a literature (Biochemical Journal, Vol. 201, p. 189, 1982).

Setting [2] is: Inhibitory activity against calpain (Table-6).
Setting [3] is: Inhibitory activity against calpain (continuation of Table-6).

Turning to `CCC(C)[C@H](NC(=O)OCc1ccccc1)C(=O)N[C@H]1CCOC1O` (stereo partly drawn) [Example 7, (3S)-3-((2S)-2-benzyloxycarbonylamino-3-methylvalerylamino)-2-tetrahydrofuranol], the figures for the IC50 (at m-Calpain (setting [2]); in assay [1]) were 2.4 µM and 0.9 µM, respectively.

Take `CC(C)C[C@H](NC(=O)C1CCc2ccccc2O1)C(=O)N[C@H]1CCOC1O` (stereo partly shown) [Example 63]: on m-Calpain (setting [3]), it took 0.35 µM to reach half-maximal inhibition (IC50).

`CC(C)C[C@H](NC(=O)OC1CCCCC1)C(=O)N[C@H]1CCOC1O` (stereo partly drawn) [Example 27, (3S)-3-((S)-2-cyclohexyloxycarbonylamino-4-methylvalerylamino)-2-tetrahydrofuranol]: the IC50 at m-Calpain (setting [2]) worked out at 0.65 µM; in assay [1], 1.2 µM.

For the molecule `CC(C)C[C@H](NC(=O)OC(C)(C)C)C(=O)N[C@H]1CCOC1O` (stereo partly drawn) [Example 10, (3S)-3-((S)-2-tert-butoxycarbonylamino-4-methylvalerylamino)-2-tetrahydrofuranol], the concentration for half-maximal inhibition (IC50) at m-Calpain (setting [2]) was 0.96 µM; in assay [1], 0.37 µM.

Take `Cc1cccc(C(=O)N[C@@H](CC(C)C)C(=O)N[C@H]2CCOC2O)c1` (stereo partly drawn) [Example 45, (3S)-3-{(S)-4-methyl-2-(3-methylbenzoylamino)valerylamino}-2-tetrahydrofuranol]: the IC50 against m-Calpain (setting [2]) was 0.56 µM; in assay [1], 0.49 µM.

The molecule `O=C(N[C@@H](Cc1ccccc1)C(=O)N[C@H]1CCOC1O)OCc1ccccc1` (stereo partly drawn) [Example 78, (3S)-3-((S)-2-benzyloxycarbonylamino-3-phenylpropionylamino)-2-tetrahydrofuranol] had an IC50 in assay [1] of 0.3 µM.

On m-Calpain (setting [3]), `CC(C)C[C@H](NS(=O)(=O)c1ccc(Cl)cc1)C(=O)N[C@H]1CCOC1O` (stereo partly drawn) [Example 68, (3S)-3-{(S)-2-(4-chlorophenylsulfonylamino)-4-methylvalerylamino}-2-tetrahydrofuranol] had an IC50 of 0.56 µM.

`CC(C)C[C@H](NS(=O)(=O)c1cccc2ccccc12)C(=O)N[C@H]1CCOC1O` (stereo partly drawn) [Example 75, (3S)-3-{(S)-4-methyl-2-(1-naphtylsulfonylamino)valerylamino}-2-tetrahydrofuranol]: the concentration for half-maximal inhibition (IC50) at m-Calpain (setting [3]) came out at 0.38 µM; in assay [1] it was 2.4 µM.

Take `COc1cc(OC)cc(C(=O)N[C@@H](CC(C)C)C(=O)N[C@H]2CCOC2O)c1` (stereo partly drawn) [Example 56, (3S)-3-{(S)-2-(3,5-dimethoxybenzoylamino)-4-methylvalerylamino}-2-tetrahydrofuranol]: the IC50 on m-Calpain (setting [2]) stood at 0.64 µM; in assay [1], 0.9 µM.

Regarding `CC(C)C[C@H](NC(=O)Cc1cccc2ccccc12)C(=O)N[C@H]1CCOC1O` (stereo partly drawn) [Example 33, (3S)-3-{(S)-4-methyl-2-(1-naphthylacetylamino)valerylamino}-2-tetrahydrofuranol], the half-maximal inhibitory concentration (IC50) is 0.11 µM on m-Calpain (setting [2]) and 0.95 µM in assay [1].

Consider `COc1ccc(COC(=O)N[C@@H](CC(C)C)C(=O)N[C@H]2CCOC2O)cc1` (stereo partly drawn) [Example 21, (3S)-3-{(S)-2-(4-methoxybenzyloxycarbonylamino)-4-methylvalerylamino}-2-tetrahydrofuranol], for which the IC50 came out at 0.34 µM against m-Calpain (setting [2]) and 1.17 µM in assay [1].

`CC(C)C[C@H](NC(=O)c1ccc2ccccc2c1)C(=O)N[C@H]1CCOC1O` (stereo partly drawn) [Example 60, (3S)-3-{(S)-4-methyl-2-(2-naphthoylamino)valerylamino}-2-tetrahydrofuranol]: the IC50 at m-Calpain (setting [3]) was 0.47 µM; in assay [1], 0.034 µM.

`Cc1ccc(S(=O)(=O)N[C@@H](CC(C)C)C(=O)N[C@H]2CCOC2O)cc1` (stereo partly drawn) [Example 70, (3S)-3-{(S)-4-methyl-2-(4-methylphenylsulfonylamino)valerylamino}-2-tetrahydrofuranol] displayed a 50% inhibitory concentration (IC50) against m-Calpain (setting [3]) of 0.5 µM.

`Cc1cc(C)c(C(=O)N[C@@H](CC(C)C)C(=O)N[C@H]2CCOC2O)c(C)c1` (stereo partly drawn) [Example 49, (3S)-3-{(S)-4-methyl-2-(2,4,6-trimethylbenzoylamino)valerylamino}-2-tetrahydrofuranol] registered an IC50 at m-Calpain (setting [2]) of 0.68 µM.

As for `Cc1cc(C)c(S(=O)(=O)N[C@@H](CC(C)C)C(=O)N[C@H]2CCOC2O)c(C)c1` (stereo partly drawn) [Example 71, (3S)-3-{(S)-4-methyl-2-(2,4,6-trimethylphenylsulfonylamino)valerylamino}-2-tetrahydrofuranol], the IC50 on m-Calpain (setting [3]) is 0.45 µM.

Molecule `Cc1ccc(C(=O)N[C@@H](CC(C)C)C(=O)N[C@H]2CCOC2O)cc1` (stereo partly drawn) [Example 46, (3S)-3-{(S)-4-methyl-2-(4-methylbenzoylamino)valerylamino}-2-tetrahydorofuranol] had an IC50 in assay [1] of 0.27 µM.

In the case of `Cc1cccc(C)c1C(=O)N[C@@H](CC(C)C)C(=O)N[C@H]1CCOC1O` (stereo partly drawn) [Example 47, (3S)-3-{(S)-2-(2,6-dimethylbenzoylamino)-4-methylvalerylamino)-2-tetrahydrofuranol], the IC50 against m-Calpain (setting [2]) turned out to be 2.3 µM.

The molecule `CC(C)C[C@H](NS(=O)(=O)c1ccc(F)cc1)C(=O)N[C@H]1CCOC1O` (stereo partly drawn) [Example 66, (3S)-3-{(S)-2-(4-fluorophenylsulfonylamino)-4-methylvalerylamino}-2-tetrahydrofuranol] displayed an IC50 on m-Calpain (setting [3]) of 0.6 µM.

In turn, `CC(C)C[C@H](NC(=O)OCc1ccccc1)C(=O)N[C@H]1CCCOC1O` (stereo partly shown) [Example 81] displayed a concentration for half-maximal inhibition (IC50) against m-Calpain (setting [3]) of 1.55 µM. Compared with the last molecule, the IC50 is about 2.6-fold higher.

Molecule `CC(C)C[C@H](NC(=O)c1ccccc1F)C(=O)N[C@H]1CCOC1O` (stereo partly drawn) [Example 40, (3S)-3-{(S)-2-(2-fluorobenzoylamino)-4-metylvalerylamino}-2-tetrahydrofuranol] returned an IC50 in assay [1] of 1 µM.

For `CC(C)C[C@H](NS(=O)(=O)c1ccc(Br)cc1)C(=O)N[C@H]1CCOC1O` (stereo partly drawn) [Example 69, (3S)-3-{(S)-2-(4-bromophenylsulfonylamino)-4-methylvalerylamino}-2-tetrahydrofuranol], the half-maximal inhibitory concentration (IC50) against m-Calpain (setting [3]) was 0.62 µM.

With `CC(C)C[C@H](NC(=O)OCc1cccc[n+]1[O-])C(=O)NC1CCOC1O` (stereo partly drawn) [Example 26, 3-{(S)-4-methyl-2-(2-pyridylmethoxycarbonylamino)valerylamino)-2-tetrahydrofuranol N-oxide], the IC50 against m-Calpain (setting [2]) came out at 1.4 µM. This counts as single-digit micromolar.

As to `CC(C)C[C@H](NC(=O)OCC1CCCO1)C(=O)N[C@H]1CCOC1O` (stereo partly drawn) [Example 23, (3S)-3-((S)-4-methyl-2-tetrahydrofurfuryloxycarbonylaminovalerylamino)-2-tetrahydrofuranol], the 50% inhibitory concentration (IC50) against m-Calpain (setting [2]) was 1.1 µM.

Turning to `COC(=O)N[C@@H](CC(C)C)C(=O)NC1CCOC1O` (stereo partly drawn) [Example 9, 3-((S)-2-methoxycarbonylamino-4-methylvalerylamino)-2-tetrahydrofuranol], the half-inhibitory concentration (IC50) on m-Calpain (setting [2]) is 1.55 µM. The IC50 values of the last two molecules are within 1.5-fold of each other.

Turning to `COc1ccccc1C(=O)N[C@@H](CC(C)C)C(=O)N[C@H]1CCOC1O` (stereo partly drawn) [Example 52, (3S)-3-{(S)-2-(2-methoxybenzoylamino)-4-methylvalerylamino)-2-tetrahydrofuranol], on m-Calpain (setting [2]), the concentration for half-maximal inhibition (IC50) worked out at 0.34 µM.

With `CC(C)C[C@H](NS(=O)(=O)c1ccccc1)C(=O)N[C@H]1C(C)COC1O` (stereo partly drawn) [Example 80, (3S)-4-methyl-3-((S)-4-methyl-2-phenylsulfonylaminovalerylamino)-2-tetrahydrofuranol], the IC50 against m-Calpain (setting [3]) was 2.8 µM.

In the case of `CC(C)C[C@H](NS(=O)(=O)c1cccc([N+](=O)[O-])c1)C(=O)N[C@H]1CCOC1O` (stereo partly drawn) [Example 74, (3S)-3-{(S)-4-methyl-2-(3-nitrophenylsulfonylamino)valerylamino}-2-tetrahydrofuranol], inhibition against m-Calpain (setting [3]) was half-maximal at 0.95 µM (IC50).

At m-Calpain (setting [3]), `CC(C)C[C@H](NS(=O)(=O)c1ccc(C(C)(C)C)cc1)C(=O)N[C@H]1CCOC1O` (stereo partly drawn) [Example 72, (3S)-3-{(S)-2-(4-tert-butylphenylsulfonylamino)-4-methylvalerylamino}-2-tetrahydrofuranol] gave an IC50 of 0.39 µM.

The molecule `COc1ccc(S(=O)(=O)N[C@@H](CC(C)C)C(=O)N[C@H]2CCOC2O)cc1` (stereo partly drawn) [Example 73, (3S)-3-{(S)-2-(4-methoxyphenylsulfonylamino)-4-methylvalerylamino}-2-tetrahydrofuranol] gave a 50% inhibitory concentration (IC50) against m-Calpain (setting [3]) of 0.74 µM.

Take `CC(C)C[C@H](NC(=O)OCC1c2ccccc2-c2ccccc21)C(=O)N[C@H]1CCOC1O` (stereo partly drawn) [Example 22, (3S)-3-{(S)-2-(9-fluorenylmethoxycarbonylamino)-4-methylvalerylamino}-2-tetrahydrofuranol]: at m-Calpain (setting [2]), inhibition was half-maximal at 0.41 µM (IC50).

With `COc1ccc(C(=O)N[C@@H](CC(C)C)C(=O)N[C@H]2CCOC2O)c(OC)c1` (stereo partly drawn) [Example 54, (3S)-3-{(S)-2-(2,4-dimethoxybenzoylamino)-4-methylvalerylamino}-2-tetrahydrofuranol], half-maximal inhibition against m-Calpain (setting [2]) (IC50) was put at 0.7 µM. Compared with the last molecule, the IC50 is about 1.7-fold higher.
